According to patent US9464064B2, “HCV helicase inhibitors and methods of use thereof” (University of Kansas, priority 2011, dated 2016):

Assays:
[1] = test system: NS3 protease in Huh7.5/HCV Con1sg Rluc cells; assay: IPS-1 (MAVS)-based reporter cell-based protease assay; set-up: species or system hepatitis C virus; details: 10 μM, 72 hours
Description: An IPS-1 (also known as MAVS)-based reporter assay was used for cell-based protease assay. […] RFP-NLS-IPS pseudoparticles were transduced into Huh7.5/HCV Con1sg Rluc cells in a 24-well plate containing cover slips and compounds were added to the cells after 6 hours at a 10 μM concentration and after 72 hours from the first addition, cells were fixed in 1% PFA, washed twice with PBS, mounted on glass slides and microscopic analyses were done.
Microscopy was performed with a Nikon Ti-E inverted fluorescence microscope using a 20× and 40×/NA 1.4 objective. Compounds were imaged using DAPI filter 340/40 band-pass excitation and a 435/50 band pass emission filter. For ALEXA 546 and RFP-NLS-IPS, a 528/25 nm band pass excitation filter and 590/60 nm band-pass emission filter were used. Image acquisition was performed with a Q imaging ROLERA camera and the NIS elements basic research imaging software (Nikon). […]
The assay selected (Jones, et al. (2010) supra) uses a fusion protein made from a NS3 protease cellular target called IPS-1 (also known as MAVS) fused to a red fluorescent protein (RFP) and a nuclear localization signal (NLS). Lentivirus expressing the RFP-NLS-IPS-1 was used to transduce the above Rluc subgenomic HCV replicon cell line, and the effect of compounds on the location of RFP-NLS was examined using fluorescence microscopy.

HCV helicase = target: T1, HCV helicase (Hepatitis C virus genotype 1b, UniProt Q9WMX2); assay: MBHA with RNA substrate (HCV helicase-catalyzed RNA unwinding); format: biochemical; details: in words
T1 construct: truncated C-terminally His-tagged NS3 proteins lacking the N-terminal protease, called NS3h; His-tag (C); made in house
T1 sequence (Q9WMX2 1192-1657): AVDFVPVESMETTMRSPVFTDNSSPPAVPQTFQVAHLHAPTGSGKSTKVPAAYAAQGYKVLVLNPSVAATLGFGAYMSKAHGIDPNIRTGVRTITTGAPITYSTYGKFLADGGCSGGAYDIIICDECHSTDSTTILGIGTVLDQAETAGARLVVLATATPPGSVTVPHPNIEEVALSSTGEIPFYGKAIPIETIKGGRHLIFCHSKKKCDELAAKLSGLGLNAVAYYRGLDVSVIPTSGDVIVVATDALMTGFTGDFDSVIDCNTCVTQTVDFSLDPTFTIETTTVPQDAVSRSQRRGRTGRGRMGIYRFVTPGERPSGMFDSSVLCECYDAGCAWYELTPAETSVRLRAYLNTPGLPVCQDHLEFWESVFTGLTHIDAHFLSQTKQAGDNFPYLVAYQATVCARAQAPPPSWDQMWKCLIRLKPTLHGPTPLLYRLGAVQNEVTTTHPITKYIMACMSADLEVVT
Source text: All oligonucleotides were purchased from Integrated DNA Technologies (IDT, Coralville, Iowa). The partially duplex DNA substrates used in MBHAs consisted of a helicase substrate forming 25 base pairs and consists of a 45-mer bottom strand 5′-GCTCCCCGTTCATCGATTGGGGAGC(T)20-3′ (SEQ ID NO:1) and the 25-mer HCV top strand 5′-Cy5-GCTCCCCAATCGATGAACGGGGAGC-IBRQ-3′ (SEQ ID NO:2). The 19 base pair RNA substrate used in MBHAs was composed of a 39 nucleotide long bottom strand 5′-AGU GCC UUG ACG AUA CAG C(U)20-3′ (SEQ ID NO:3) and the 24 nucleotide long top strand 5′-Tye^665-AGUGCGCUGUAUCGUCAAGGCACU-IBRQSp-3′ (SEQ ID NO:4). Underlined areas denote hairpin-forming regions. DNA and RNA substrates were annealed and purified as described previously (Belon & Frick (2008) BioTechniques 45:433-40, 442).
All molecular beacon-based helicase assays (MBHAs) were performed according to known methods (Belon & Frick (2008) supra; Belon & Frick (2009) supra). […] In each flat, black 384-well plate, 56 compounds were tested, in triplicate, along with three negative controls (DMSO only), three positive controls (500 nM dT20), and two wells with no enzyme. Fluorescence was read before ATP (F0) addition and 30 minutes after ATP was added to 1 mM (F30) using a Tecan Infinite M200 fluorescence microplate reader with excitation and emission wavelengths set to 643 and 670 nm, respectively. Percent inhibition was calculated with equation 1, and compound interference in the MBHA was calculated with equation 2.
To monitor helicase reaction kinetics and to calculate IC50 values, MBHAs were performed in 60 μL in white ½ area 96-well plates and measured in a Thermo Varioscan Multimode reader (Thermo Scientific) using the 643 nm excitation wavelength and 667 emission wavelengths. […] Initial reaction velocities were calculated by fitting first-order decay equation to data obtained after ATP addition and calculating an initial velocity form the resulting amplitude and rate constant.

[2] = Hepatic microsome stability, human; format: in vitro ADME; details: percent remaining at 1 hour
Description: Metabolic stability was assessed in the presence of human liver microsomes (XenoTech) and mouse liver mirosomes (XenoTech). All liquid was dispensed and transfer steps were performed with the FREEDOM EVO automated liquid handler (Tecan US). NADPH, a required cofactor for CYP450 metabolism, was provided by the NADPH Regenerating System, Solutions A (BD Biosciences) and B (BD Biosciences). Compound stock solutions were initially prepared in 100% DMSO and subsequently diluted in acetonitrile for the assay. The pH of the reactions was kept at ˜7.4 with potassium phosphate buffer (BD Biosciences). The reactions were started after adding NADPH to the reaction plate containing microsomes and compounds and time 0 minutes aliquots were promptly collected and mixed with ice cold acetonitrile (spiked with internal standards) to quench the reactions. The remainder of the reaction volume was incubated at 37° C. with shaking. […] The amount of compound in the supernatant was determined by LC/MS/MS (Applied Biosystems, Sciex API4000 Q-TRAP) and the percent of parent compound remaining after 60 minutes was calculated by the following formula: % parent compound remaining=[(concentration at 60 minutes/concentration at 0 minutes)×100]. […] Results reported are the mean of each reaction triplicate, normalized to the internal standard, and expressed as a percent compound remaining after the incubation time. […]

[3] = Plasma protein binding (RED), human; format: in vitro ADME
Description: TEFLON Base Plate wells were rinsed with 20% ethanol for 10 minutes. Ethanol was then removed and wells were rinsed with ultrapure water and allowed to dry. RED (rapid equilibrium dialysis) inserts from Thermo Scientific (Pierce) were placed (open end up) into the wells of the base plate. All liquid was dispensed and transfer steps were performed with the FREEDOM EVO automated liquid handler (Tecan US). The sample chambers (red ring) contained 300 μl of a mixture of plasma and compound, and the buffer chambers received 500 μl of dialysis buffer (1×PBS, pH7.4). Duplicate inserts were made for each concentration tested. The base plate was covered with sealing tape and incubated at 37° C. on an orbital shaker at 350 rpm for 4 hours. After the incubation time, equal volumes from both chambers were removed and transferred to a 96 well plate containing either plasma or buffer. […] The amount of compound in the supernatant was determined by LC/MS/MS (Applied Biosystems, Sciex API4000 Q-Trap). The percent of free and bound compounds were calculated with the following formula: % of bound parent compound=[(amount of compound in donor-receiver/amount of compound in donor)×100]. Results reported are the mean of each reaction duplicate, normalized to the internal standard, and expressed as a percent compound bound after the incubation time. […]

## Cc1ccc2nc(-c3ccc4nc(-c5ccc(NC(=O)c6cc(C(F)(F)F)cc(C(F)(F)F)c6)cc5)sc4c3)sc2c1S(=O)(=O)O [Compound 24, 2′-(4-(3,5-bis(trifluoromethyl)benzamido)phenyl)-6-methyl-[2,6′-bibenzo[d]thiazole]-7-sulfonic acid]
[1]
  nuclear translocation of RFP-NLS (cellular NS3 protease activity): did not inhibit nuclear translocation

## Cc1ccc2nc(-c3ccc4nc(-c5ccc(NC(=O)c6cccc(Cl)c6)cc5)sc4c3)sc2c1S(=O)(=O)O [Compound 17, 2′-(4-(3-chlorobenzamido)phenyl)-6-methyl-[2,6′-bibenzo[d]thiazole]-7-sulfonic acid]
HCV helicase
  effect on HCV helicase catalyzed RNA unwinding: inhibited HCV helicase-catalyzed RNA-unwinding
[2]
  Hepatic Microsome Stability Human: 83.57%
[3]; pH 7.4, 1 μM, read-out: Plasma Protein Binding (% Bound) Human (converted)
  fraction unbound at 4 h, 1 μM: 0.02
[3]; pH 7.4, 10 μM, read-out: Plasma Protein Binding (% Bound) Human
  fraction unbound at 4 h, 10 μM: 0.01
